Source: patent publication US7517874B2 (priority 2007, dated 2009)

What was measured:
rat CB2 receptor (rCB2) = target: T1, rat CB2 receptor (rCB2) (Rattus norvegicus, UniProt Q9QZN9); test: cell-based; type: cell-based; settings: for +/− RCB2: agonist or inverse agonist at rCB2
T1 sequence (Q9QZN9 1-360): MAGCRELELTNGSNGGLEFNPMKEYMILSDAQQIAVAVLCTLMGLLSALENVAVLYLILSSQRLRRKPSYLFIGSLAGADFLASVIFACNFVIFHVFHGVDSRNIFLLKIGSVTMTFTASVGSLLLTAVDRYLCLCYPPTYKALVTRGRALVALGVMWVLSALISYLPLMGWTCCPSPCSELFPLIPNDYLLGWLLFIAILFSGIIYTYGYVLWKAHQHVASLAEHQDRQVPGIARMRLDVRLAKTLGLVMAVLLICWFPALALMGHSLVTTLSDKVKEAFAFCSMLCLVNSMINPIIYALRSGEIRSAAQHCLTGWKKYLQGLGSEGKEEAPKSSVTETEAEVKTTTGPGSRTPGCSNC
In short: (§1)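 Agonism or inverse agonism was assessed as change in intracellular cAMP in CHO-K1 cells expressing human CB1 or rat CB2 (genomic DNA, pcDNA3.1).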

[1] = target: human CB1 receptor (hCB1) (Homo sapiens, UniProt P21554); test: cell-based; type: cell-based
In short: as §1

Chain of human CB1 receptor (hCB1) (P21554 whole entry): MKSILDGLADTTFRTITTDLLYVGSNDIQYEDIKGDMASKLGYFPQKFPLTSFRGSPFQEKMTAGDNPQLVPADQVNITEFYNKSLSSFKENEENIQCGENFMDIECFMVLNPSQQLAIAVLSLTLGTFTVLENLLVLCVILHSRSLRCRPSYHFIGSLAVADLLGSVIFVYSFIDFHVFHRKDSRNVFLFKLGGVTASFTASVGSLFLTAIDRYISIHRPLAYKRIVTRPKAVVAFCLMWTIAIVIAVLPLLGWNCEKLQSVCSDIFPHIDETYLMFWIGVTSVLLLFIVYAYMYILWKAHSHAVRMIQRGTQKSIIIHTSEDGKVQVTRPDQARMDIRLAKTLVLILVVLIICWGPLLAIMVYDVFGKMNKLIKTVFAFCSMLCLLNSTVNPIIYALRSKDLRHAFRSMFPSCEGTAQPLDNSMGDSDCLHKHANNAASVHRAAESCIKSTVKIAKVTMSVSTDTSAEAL

| SMILES | +/− RCB2 (rat CB2 receptor (rCB2)) | EC50 [1] [µM] | EC50 (rat CB2 receptor (rCB2)) [µM] |
| --- | --- | --- | --- |
| CNC(=O)[C@@H](NC(=O)c1nc(-c2ccc(C)cc2F)n2c1CN(CC1CC1)CCC2)C(C)(C)C [Compound 323, (S)-8-(cyclopropylmethyl)-N-(3,3-dimethyl-1-(methylamino)-1-oxobutan-2-yl)-3-(2-fluoro-4-methylphenyl)-6,7,8,9-tetrahydro-5H-imidazo[1,5-a][1,4]diazepine-1-carboxamide] | − | > 10 |  |
| CNC(=O)[C@@H](NC(=O)c1nc(-c2ccccc2OC)n2c1CN(C)CCC2)C(C)(C)C [Compound 325, (S)-N-(3,3-dimethyl-1-(methylamino)-1-oxobutan-2-yl)-3-(2-methoxyphenyl)-8-methyl-6,7,8,9-tetrahydro-5H-imidazo[1,5-a][1,4]diazepine-1-carboxamide] | + | > 10 |  |
| CNC(=O)[C@@H](NC(=O)c1nc(-c2cc(Cl)ccc2OC)n2c1CN(C)CCC2)C(C)(C)C [Compound 327, (S)-3-(5-chloro-2-methoxyphenyl)-N-(3,3-dimethyl-1-(methylamino)-1-oxobutan-2-yl)-8-methyl-6,7,8,9-tetrahydro-5H-imidazo[1,5-a][1,4]diazepine-1-carboxamide] | + | > 10 |  |
| CNC(=O)[C@@H](NC(=O)c1nc(-c2cccc(C#N)c2)n2c1CN(C)CCC2)C(C)(C)C [Compound 328, (S)-3-(3-cyanophenyl)-N-(3,3-dimethyl-1-(methylamino)-1-oxobutan-2-yl)-8-methyl-6,7,8,9-tetrahydro-5H-imidazo[1,5-a][1,4]diazepine-1-carboxamide] | + | > 10 |  |
| CNC(=O)[C@@H](NC(=O)c1nc(-c2ccsc2)n2c1CN(C)CCC2)C(C)(C)C [Compound 329, (S)-N-(3,3-dimethyl-1-(methylamino)-1-oxobutan-2-yl)-8-methyl-3-(thiophen-3-yl)-6,7,8,9-tetrahydro-5H-imidazo[1,5-a][1,4]diazepine-1-carboxamide] | + | > 10 |  |
| CNC(=O)[C@@H](NC(=O)c1nc(-c2ccc(C(F)(F)F)cc2)n2c1CN(C)CCC2)C(C)(C)C [Compound 330, (S)-N-(3,3-dimethyl-1-(methylamino)-1-oxobutan-2-yl)-8-methyl-3-(4-(trifluoromethyl)phenyl)-6,7,8,9-tetrahydro-5H-imidazo[1,5-a][1,4]diazepine-1-carboxamide] | − | > 10 |  |
| CNC(=O)[C@@H](NC(=O)c1nc(-c2cc(F)cc(F)c2)n2c1CN(C)CCC2)C(C)(C)C [Compound 331, (S)-3-(3,5-difluorophenyl)-N-(3,3-dimethyl-1-(methylamino)-1-oxobutan-2-yl)-8-methyl-6,7,8,9-tetrahydro-5H-imidazo[1,5-a][1,4]diazepine-1-carboxamide] | + | > 10 |  |
| CNC(=O)[C@@H](NC(=O)c1nc(-c2ccc(C)cc2)n2c1CN(C)CCC2)C(C)(C)C [Compound 332, (S)-N-(3,3-dimethyl-1-(methylamino)-1-oxobutan-2-yl)-8-methyl-3-p-tolyl-6,7,8,9-tetrahydro-5H-imidazo[1,5-a][1,4]diazepine-1-carboxamide] |  | > 10 | > 10 |
| CNC(=O)[C@@H](NC(=O)c1nc(-c2ccccc2OC(F)(F)F)n2c1CN(C)CCC2)C(C)(C)C [Compound 333, (S)-N-(3,3-dimethyl-1-(methylamino)-1-oxobutan-2-yl)-8-methyl-3-(2-(trifluoromethoxy)phenyl)-6,7,8,9-tetrahydro-5H-imidazo[1,5-a][1,4]diazepine-1-carboxamide] | + | > 10 |  |
| CNC(=O)[C@@H](NC(=O)c1nc(-c2ccc(C)c(Cl)c2)n2c1CN(C)CCC2)C(C)(C)C [Compound 334, (S)-3-(3-chloro-4-methylphenyl)-N-(3,3-dimethyl-1-(methylamino)-1-oxobutan-2-yl)-8-methyl-6,7,8,9-tetrahydro-5H-imidazo[1,5-a][1,4]diazepine-1-carboxamide] |  | > 10 | > 10 |
| CNC(=O)[C@@H](NC(=O)c1nc(-c2cc(C)ccc2Cl)n2c1CN(C)CCC2)C(C)(C)C [Compound 335, (S)-3-(2-chloro-5-methylphenyl)-N-(3,3-dimethyl-1-(methylamino)-1-oxobutan-2-yl)-8-methyl-6,7,8,9-tetrahydro-5H-imidazo[1,5-a][1,4]diazepine-1-carboxamide] |  | > 10 | > 10 |
| CNC(=O)[C@@H](NC(=O)c1nc(/C=C/c2ccccc2)n2c1CN(C)CCC2)C(C)(C)C [Compound 336, (S,E)-N-(3,3-dimethyl-1-(methylamino)-1-oxobutan-2-yl)-8-methyl-3-styryl-6,7,8,9-tetrahydro-5H-imidazo[1,5-a][1,4]diazepine-1-carboxamide] | − | > 10 |  |
| CNC(=O)[C@@H](NC(=O)c1nc(-c2ccc(F)cc2Cl)n2c1CN(C)CCC2)C(C)(C)C [Compound 337, (S)-3-(2-chloro-4-fluorophenyl)-N-(3,3-dimethyl-1-(methylamino)-1-oxobutan-2-yl)-8-methyl-6,7,8,9-tetrahydro-5H-imidazo[1,5-a][1,4]diazepine-1-carboxamide] | + | > 10 |  |
| CNC(=O)[C@@H](NC(=O)c1nc(-c2cccc(OC(F)(F)F)c2)n2c1CN(C)CCC2)C(C)(C)C [Compound 338, (S)-N-(3,3-dimethyl-1-(methylamino)-1-oxobutan-2-yl)-8-methyl-3-(3-(trifluoromethoxy)phenyl)-6,7,8,9-tetrahydro-5H-imidazo[1,5-a][1,4]diazepine-1-carboxamide] |  | > 10 | > 10 |
| CNC(=O)[C@@H](NC(=O)c1nc(-c2ccc(OC(F)(F)F)cc2)n2c1CN(C)CCC2)C(C)(C)C [Compound 339, (S)-N-(3,3-dimethyl-1-(methylamino)-1-oxobutan-2-yl)-8-methyl-3-(4-(trifluoromethoxy)phenyl)-6,7,8,9-tetrahydro-5H-imidazo[1,5-a][1,4]diazepine-1-carboxamide] | − | > 10 |  |
| CNC(=O)[C@@H](NC(=O)c1nc(-c2ccc(C)cc2F)n2c1CN(C)CCC2)C(C)(C)C [Compound 340, (S)-N-(3,3-dimethyl-1-(methylamino)-1-oxobutan-2-yl)-3-(2-fluoro-4-methylphenyl)-8-methyl-6,7,8,9-tetrahydro-5H-imidazo[1,5-a][1,4]diazepine-1-carboxamide] | + | > 10 |  |
| CNC(=O)[C@@H](NC(=O)c1nc(-c2ccc3c(c2)OCO3)n2c1CN(C)CCC2)C(C)(C)C [Compound 341, (S)-3-(benzo[d][1,3]dioxol-5-yl)-N-(3,3-dimethyl-1-(methylamino)-1-oxobutan-2-yl)-8-methyl-6,7,8,9-tetrahydro-5H-imidazo[1,5-a][1,4]diazepine-1-carboxamide] | − | > 10 |  |
| CNC(=O)[C@@H](NC(=O)c1nc(-c2ccc(C#N)cc2)n2c1CN(C)CCC2)C(C)(C)C [Compound 342] |  | > 10 | > 10 |
| CNC(=O)[C@@H](NC(=O)c1nc(-c2ccc(OC)cc2C)n2c1CN(C)CCC2)C(C)(C)C [Compound 343, (S)-N-(3,3-dimethyl-1-(methylamino)-1-oxobutan-2-yl)-3-(4-methoxy-2-methylphenyl)-8-methyl-6,7,8,9-tetrahydro-5H-imidazo[1,5-a][1,4]diazepine-1-carboxamide] |  | > 10 | > 10 |
| CNC(=O)[C@@H](NC(=O)c1nc(-c2cnc(OC)nc2OC)n2c1CN(C)CCC2)C(C)(C)C [Compound 344, (S)-3-(2,4-dimethoxypyrimidin-5-yl)-N-(3,3-dimethyl-1-(methylamino)-1-oxobutan-2-yl)-8-methyl-6,7,8,9-tetrahydro-5H-imidazo[1,5-a][1,4]diazepine-1-carboxamide] |  | > 10 | > 10 |
| CNC(=O)[C@@H](NC(=O)c1nc(-c2cccc(F)c2)n2c1CN(C)CCC2)C(C)(C)C [Compound 345, (S)-N-(3,3-dimethyl-1-(methylamino)-1-oxobutan-2-yl)-3-(3-fluorophenyl)-8-methyl-6,7,8,9-tetrahydro-5H-imidazo[1,5-a][1,4]diazepine-1-carboxamide] | + | > 10 |  |
| CNC(=O)[C@@H](NC(=O)c1nc(-c2cccc(OC)c2F)n2c1CN(C)CCC2)C(C)(C)C [Compound 346, (S)-N-(3,3-dimethyl-1-(methylamino)-1-oxobutan-2-yl)-3-(2-fluoro-3-methoxyphenyl)-8-methyl-6,7,8,9-tetrahydro-5H-imidazo[1,5-a][1,4]diazepine-1-carboxamide] | − | > 10 |  |
| CNC(=O)[C@@H](NC(=O)c1nc(-c2ccc(F)c(C)c2)n2c1CN(C)CCC2)C(C)(C)C [Compound 347, (S)-N-(3,3-dimethyl-1-(methylamino)-1-oxobutan-2-yl)-3-(4-fluoro-3-methylphenyl)-8-methyl-6,7,8,9-tetrahydro-5H-imidazo[1,5-a][1,4]diazepine-1-carboxamide] |  | > 10 | > 10 |
| CNC(=O)[C@@H](NC(=O)c1nc(-c2cccnc2)n2c1CN(C)CCC2)C(C)(C)C [Compound 348, (S)-N-(3,3-dimethyl-1-(methylamino)-1-oxobutan-2-yl)-8-methyl-3-(pyridin-3-yl)-6,7,8,9-tetrahydro-5H-imidazo[1,5-a][1,4]diazepine-1-carboxamide] | + | > 10 |  |
